Assay results as given in patent US8822471B2, “Compounds, pharmaceutical compositions and uses thereof” (Boehringer Ingelheim International GmbH, priority 2011, dated 2014).

target: T1, human GPR119 (Homo sapiens, UniProt Q8TDV5); test: AlphaScreen cAMP assay in MIN6 cells stably transfected with human GPR119; format: cell-based; settings: Min-6/hGPR119 cells, AlphaScreen cAMP Assay Kit, 45 minutes incubation at room temperature
T1 construct: expression vector for human GPR119 cDNA (Acc. No. NP_848566); expressed in transfected cells
T1 sequence (Q8TDV5 1-335): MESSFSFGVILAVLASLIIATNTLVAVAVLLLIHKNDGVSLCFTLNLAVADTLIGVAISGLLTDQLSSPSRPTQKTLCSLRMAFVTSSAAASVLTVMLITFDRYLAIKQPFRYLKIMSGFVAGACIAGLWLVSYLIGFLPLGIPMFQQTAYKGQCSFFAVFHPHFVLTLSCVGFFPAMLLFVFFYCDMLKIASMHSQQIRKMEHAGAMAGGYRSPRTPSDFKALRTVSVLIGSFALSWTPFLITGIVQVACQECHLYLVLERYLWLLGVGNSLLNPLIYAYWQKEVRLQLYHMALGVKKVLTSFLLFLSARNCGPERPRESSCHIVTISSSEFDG
Experimental: The compounds of formula I according to the invention modulate the activity of the G-protein-coupled receptor GPR119. The effect of the compounds on the activation of GPR119 and on the stimulation of intracellular cAMP concentration is determined using the AlphaScreen cAMP Assay Kit (Cat. No. #6760625R) made by PerkinElmer.
MIN6 cells [Miyazaki J et al. Endocrinology. 1990 July; 127(1):126-32] are stably transfected with an expression vector for human GPR119 cDNA (Acc. No. NP_848566). Min-6/hGPR119 cells are cultured in DMEM, 10% FBS, 50 μM β-mercaptoethanol, 0.3 mg/mL Geniticin, 2 mM GlutaMAX at 37° C. 5% CO2. For the assay, the cells are seeded in Optiplates (white, 384-well, 160 W-barcoded, TC, sterile with lid, Cat. No. #6007688 (Perkin Elmer); 10000 cells/well; 50 μl). The plates covered with lids are then incubated for 24 hours at 37° C./5% CO2. After the medium is aspirated from the wells completely, 10 μl of the test compound are added, the compounds are diluted using stimulating buffer (140 mM NaCl, 3.6 mM KCl, 0.5 mM NaH2PO4, 0.5 mM MgSO4, 1.5 mM CaCl2, 10 mM Hepes, 5 mM NaHCO3; pH 7.4. 0.5 mM IBMX and 0.1% BSA, the final DMSO concentration is 1%). After 45 minutes incubation at room temperature (approx. 20° C.), the cAMP concentrations are determined using the AlphaScreen cAMP Assay Kit (Cat. No. #6760625R from PerkinElmer).

EC50	SMILES
15 nM	CC(C)c1noc(N2CCC(N(C(=O)c3ccc(-c4cnco4)cc3)C3CC3)CC2)n1 [Example 1, N-Cyclopropyl-N-[1-(3-isopropyl-[1,2,4]oxadiazol-5-yl)-piperidin-4-yl]-4-oxazol-5-yl-benzamide]
15 nM	CC(C)Cc1noc(N2CCC(N(C(=O)c3ccc(-c4cnco4)cc3)C3CC3)CC2)n1 [Example 2, N-Cyclopropyl-N-[1-(3-isobutyl-[1,2,4]oxadiazol-5-yl)-piperidin-4-yl]-4-oxazol-5-yl-benzamide]
19 nM	CC(C)(C)c1noc(N2CCC(N(C(=O)c3ccc(-c4cnco4)cc3)C3CC3)CC2)n1 [Example 3, N-[1-(3-tert-Butyl-[1,2,4]oxadiazol-5-yl)-piperidin-4-yl]-N-cyclopropyl-4-oxazol-5-yl-benzamide]
160 nM	COCc1noc(N2CCC(N(C(=O)c3ccc(-c4cnco4)cc3)C3CC3)CC2)n1 [Example 4, N-Cyclopropyl-N-[1-(3-methoxymethyl-[1,2,4]oxadiazol-5-yl)-piperidin-4-yl]-4-oxazol-5-yl-benzamide]
14 nM	O=C(c1ccc(-c2cnco2)cc1)N(C1CC1)C1CCN(c2nc(-c3ccc(I)cc3)no2)CC1 [Example 5, N-Cyclopropyl-N-{1-[3-(4-iodo-phenyl)-[1,2,4]oxadiazol-5-yl]-piperidin-4-yl}-4-oxazol-5-yl-benzamide]
23 nM	O=C(c1ccc(-c2cnco2)cc1)N(C1CC1)C1CCN(c2nc(-c3ccccc3)no2)CC1 [Example 6, N-Cyclopropyl-4-oxazol-5-yl-N-[1-(3-phenyl-[1,2,4]oxadiazol-5-yl)-piperidin-4-yl]-benzamide]
69 nM	O=C(c1ccc(-c2cnco2)cc1)N(C1CC1)C1CCN(c2nc(Cc3ccccc3)no2)CC1 [Example 7, N-[1-(3-Benzyl-[1,2,4]oxadiazol-5-yl)-piperidin-4-yl]-N-cyclopropyl-4-oxazol-5-yl-benzamide]
36 nM	CCCc1noc(N2CCC(N(C(=O)c3ccc(-c4cnco4)cc3)C3CC3)CC2)n1 [Example 8, N-Cyclopropyl-4-oxazol-5-yl-N-[1-(3-propyl-[1,2,4]oxadiazol-5-yl)-piperidin-4-yl]-benzamide]
80 nM	O=C(c1ccc(-c2cnco2)cc1)N(C1CC1)C1CCN(c2nc(-c3ccncc3)no2)CC1 [Example 9, N-Cyclopropyl-4-oxazol-5-yl-N-[1-(3-pyridin-4-yl-[1,2,4]oxadiazol-5-yl)-piperidin-4-yl]-benzamide]
13 nM	O=C(c1ccc(-c2cnco2)cc1)N(C1CC1)C1CCN(c2nc(-c3ccc(F)cc3)no2)CC1 [Example 10, N-Cyclopropyl-N-{1-[3-(4-fluoro-phenyl)-[1,2,4]oxadiazol-5-yl]-piperidin-4-yl}-4-oxazol-5-yl-benzamide]
97 nM	O=C(c1ccc(-c2cnco2)cc1)N(C1CC1)C1CCN(c2nc(-c3cccc(Br)c3)no2)CC1 [Example 11, N-{1-[3-(3-Bromo-phenyl)-[1,2,4]oxadiazol-5-yl]-piperidin-4-yl}-N-cyclopropyl-4-oxazol-5-yl-benzamide]
51 nM	CCc1noc(N2CCC(N(C(=O)c3ccc(-c4cnco4)cc3)C3CC3)CC2)n1 [Example 12, N-Cyclopropyl-N-[1-(3-ethyl-[1,2,4]oxadiazol-5-yl)-piperidin-4-yl]-4-oxazol-5-yl-benzamide]
26 nM	C=CCc1noc(N2CCC(N(C(=O)c3ccc(-c4cnco4)cc3)C3CC3)CC2)n1 [Example 13, N-[1-(3-Allyl-[1,2,4]oxadiazol-5-yl)-piperidin-4-yl]-N-cyclopropyl-4-oxazol-5-yl-benzamide]
27 nM	O=C(c1ccc(-c2cnco2)cc1)N(C1CC1)C1CCN(c2nc(-c3ccsc3)no2)CC1 [Example 14, N-Cyclopropyl-4-oxazol-5-yl-N-[1-(3-thiophen-3-yl-[1,2,4]oxadiazol-5-yl)-piperidin-4-yl]-benzamide]
153 nM	O=C(c1ccc(-c2cnco2)cc1)N(C1CC1)C1CCN(c2nc(-c3cccnc3)no2)CC1 [Example 15, N-Cyclopropyl-4-oxazol-5-yl-N-[1-(3-pyridin-3-yl-[1,2,4]oxadiazol-5-yl)-piperidin-4-yl]-benzamide]
206 nM	Cc1nc(-c2noc(N3CCC(N(C(=O)c4ccc(-c5cnco5)cc4)C4CC4)CC3)n2)cs1 [Example 16, N-Cyclopropyl-N-{1-[3-(2-methyl-thiazol-4-yl)-[1,2,4]oxadiazol-5-yl]-piperidin-4-yl}-4-oxazol-5-yl-benzamide]

EC50	SMILES
23 nM	O=C(c1ccc(-c2ccncc2)cc1)N(C1CC1)C1CCN(c2nc(-c3ccccc3)no2)CC1 [Example 17, N-Cyclopropyl-N-[1-(3-phenyl-[1,2,4]oxadiazol-5-yl)-piperidin-4-yl]-4-pyridin-4-yl-benzamide]
275 nM	O=C(c1ccc(-c2cnco2)cc1)N(C1CC1)C1CCN(c2nc(-c3ccccn3)no2)CC1 [Example 18, N-Cyclopropyl-4-oxazol-5-yl-N-[1-(3-pyridin-2-yl-[1,2,4]oxadiazol-5-yl)-piperidin-4-yl]-benzamide]
32 nM	CCc1cnc(N2CCC(N(C(=O)c3ccc(-c4cnco4)cc3)C3CC3)CC2)nc1 [Example 19, N-Cyclopropyl-N-[1-(5-ethyl-pyrimidin-2-yl)-piperidin-4-yl]-4-oxazol-5-yl-benzamide]
393 nM	O=C(c1ccc(-c2cnco2)cc1)N(C1CC1)C1CCN(c2ncccn2)CC1 [Example 20, N-Cyclopropyl-4-oxazol-5-yl-N-(1-pyrimidin-2-yl-piperidin-4-yl)-benzamide]
143 nM	N#Cc1ccc(N2CCC(N(C(=O)c3ccc(-c4cnco4)cc3)C3CC3)CC2)nc1 [Example 21, N-[1-(5-Cyano-pyridin-2-yl)-piperidin-4-yl]-N-cyclopropyl-4-oxazol-5-yl-benzamide]
60 nM	O=C(c1ccc(-c2cnco2)cc1)N(C1CC1)C1CCN(c2nc3ccccc3o2)CC1 [Example 22, N-(1-Benzooxazol-2-yl-piperidin-4-yl)-N-cyclopropyl-4-oxazol-5-yl-benzamide]
44 nM	CCCc1cnc(N2CCC(N(C(=O)c3ccc(-c4cnco4)cc3)C3CC3)CC2)nc1 [Example 23, N-Cyclopropyl-4-oxazol-5-yl-N-[1-(5-propyl-pyrimidin-2-yl)-piperidin-4-yl]-benzamide]
232 nM	O=C(c1ccc(-c2cnco2)cc1)N(C1CC1)C1CCN(c2ncc(-c3ccc(Cl)cc3)cn2)CC1 [Example 24, N-{1-[5-(4-Chloro-phenyl)-pyrimidin-2-yl]-piperidin-4-yl}-N-cyclopropyl-4-oxazol-5-yl-benzamide]
17 nM	O=C(c1ccc(-c2cnco2)cc1)N(C1CC1)C1CCN(c2ncc(Br)cn2)CC1 [Example 25, N-[1-(5-Bromo-pyrimidin-2-yl)-piperidin-4-yl]-N-cyclopropyl-4-oxazol-5-yl-benzamide]
47 nM	COc1cnc(N2CCC(N(C(=O)c3ccc(-c4cnco4)cc3)C3CC3)CC2)nc1 [Example 26, N-Cyclopropyl-N-[1-(5-methoxy-pyrimidin-2-yl)-piperidin-4-yl]-4-oxazol-5-yl-benzamide]
71 nM	COc1ccc(-c2cnc(N3CCC(N(C(=O)c4ccc(-c5cnco5)cc4)C4CC4)CC3)nc2)cc1 [Example 27, N-Cyclopropyl-N-{1-[5-(4-methoxy-phenyl)-pyrimidin-2-yl]-piperidin-4-yl}-4-oxazol-5-yl-benzamide]
676 nM	O=C(c1ccc(-c2cnco2)cc1)N(C1CC1)C1CCN(c2ccccn2)CC1 [Example 28, N-Cyclopropyl-4-oxazol-5-yl-N-(1-pyridin-2-yl-piperidin-4-yl)-benzamide]
78 nM	O=C(c1ccc(-c2cnco2)cc1)N(C1CC1)C1CCN(c2ncc(F)cn2)CC1 [Example 29, N-Cyclopropyl-N-[1-(5-fluoro-pyrimidin-2-yl)-piperidin-4-yl]-4-oxazol-5-yl-benzamide]
19 nM	O=C(c1ccc(-c2cnco2)cc1)N(C1CC1)C1CCN(c2ncc(Cl)cn2)CC1 [Example 30, N-[1-(5-Chloro-pyrimidin-2-yl)-piperidin-4-yl]-N-cyclopropyl-4-oxazol-5-yl-benzamide]
38 nM	O=C(c1ccc(-c2cnco2)cc1)N(C1CC1)C1CCN(c2ccc(C(F)(F)F)cn2)CC1 [Example 31, N-Cyclopropyl-4-oxazol-5-yl-N-[1-(5-trifluoromethyl-pyridin-2-yl)-piperidin-4-yl]-benzamide]
